Measured values: patent US20260015315A1, “AMINO LIPID COMPOUND, PREPARATION METHOD THEREFOR, COMPOSITION THEREOF AND APPLICATION THEREOF” (SHENZHEN SHENXIN BIOTECHNOLOGY CO., LTD., priority 2022, published 2026)

How the values were obtained:
[1] = test system: immune cell populations in different tissues and organs; experiment: Delivery efficiency of eGFP mRNA encapsulating LNP to immune cell populations in different tissues and organs (flow cytometry); format: in vivo; details: eGFP mRNA-LNP intravenous, C57BL/6 mice, 6 hours; spleen, axillary lymph nodes, peripheral blood, bone marrow, lungs, liver; FIGS. 1A to 1F
Method: C57BL/6 mice (3 mice per group) were intravenously injected with eGFP mRNA encapsulating LNP. After 6 hours, the mice were dissected, and the spleen, axillary lymph nodes, peripheral blood, bone marrow, lungs and liver were collected to prepare single-cell suspensions of various tissues and organs. After blocking with Fe blocking antibodies and surface staining with fluorescent-labeled antibodies, sample analysis was conducted by flow cytometry to analyze the expression levels of eGFP in various immune cell populations to confirm the delivery efficiency of lipid nanoparticles comprising different amino lipid compounds to immune cell populations in different tissues and organs.

BALB/c mice = experiment: In vivo delivery of lipid nanoparticle encapsulating luciferase mRNA (Fluc mRNA), IVIS imaging; details: for Total flux (fluorescence expression intensity): Fluc mRNA-LNP (amino lipid:DSPC:CHO-HP:PEG2000-DMG 48:10:40.5:1.5), whole body; for (Spleen/Total Flux) * 100% / Multiple of spleen delivery/total delivery (Spleen/Total Flux) to Compound 118: tail vein IV, BALB/c mice, 6 hours; for Multiple of spleen delivery/total delivery (Spleen/Total Flux) to Compound 118: relative to Compound 118
Method: The amino lipid compound of the present disclosure, a helper lipid, a structural lipid, and a PEG-lipid were separately dissolved in absolute ethanol to prepare respective solutions at concentrations of 20 mg/mL, 10 mg/mL, 20 mg/mL, and 25 mg/mL, respectively. The above four solutions were pipetted at a molar ratio of the amino lipid compound: DSPC:CHO-HP:PEG2000-DMG of 48:10:40.5:1.5, and mixed well to prepare an alcohol phase.
(2) Encapsulation: The water phase and the alcohol phase were injected into a microfluidic chip at a flow rate of water phase:alcohol phase=12 mL/min: 4 mL/min by using a microfluidic preparation instrument (MPE-L2), and encapsulation was carried out at a flow rate of water phase:alcohol phase=9 mL/min: 3 mL/min to obtain mRNA-encapsulating lipid nanoparticle (mRNA-LNP).
(3) Dialysis: The product of step (2) was loaded in a dialysis bag and placed in a Tris Buffer-8% sucrose solution for replacement to remove ingredients such as residual ethanol, unassembled lipids. Dialysis was conducted for 2 h with magnetic stirring at room temperature and under protection from light (dialysate was replaced every 1 hour).
(4) The product of step (3) was sterilized by passing through a 0.22 μm microporous membrane, and then packaged.
Lipid nanoparticle formulations encapsulating Flue mRNA were prepared, with a concentration of Flue mRNA of 0.2 μg/μL, a mass ratio of Flue mRNA to Lipid of 1:10, a particle size of 80-130 nm, and a encapsulation efficiency of 80% or higher.
• Animal preparation: Female BALB/c mice of 6-8 weeks old were selected and raised in an SPF grade breeding room. Animal testing was conducted in strict accordance with the guidelines of national health institutions and animal ethics requirements.
In vivo Delivery: prior to injection of the test LNP formulations, the LNP formulations were gently and repeatedly inverted to thoroughly mix the formulation samples. A corresponding amount of the formulation samples were aspirated with a 1 ml insulin syringe, and the LNP formulations were injected by tail vein injection (IV), with 3 mice in duplicate per formulation. Each mouse was injected with 75 μL of the luciferase mRNA (Flue mRNA)-encapsulating lipid nanoparticle formulation prepared in Experimental Example 1.
6 hours after injection of LNP formulations, mice were injected with 200 μL D-Luciferin luciferase developing substrate (Catalog No. 122799; Manufacturer: Perkin Elmer). After the substrate was injected, the mice were anesthetized by injection of 200 μl of 2.5% avertin, and the injection time of luciferase developing substrate was recorded.
The fluorescence expression intensity induced by the lipid nanoparticle encapsulating luciferase mRNA (Flue mRNA) with a representative amino lipid compound is shown in Table 4, with the amino lipid compound 118 as a control.

[2] = 75 μL tail vein IV, female BALB/c mice, IVIS 6 hours after injection
[3] = Fluc mRNA-LNP, 75 μL tail vein IV, female BALB/c mice, IVIS 6 hours after injection

| Compound | Delivery preference to immune cells (eGFP expression in immune cell populations) [1] | Total flux (fluorescence expression intensity) (BALB/c mice; [2]) | Spleen (fluorescence expression intensity) (BALB/c mice; [3]) | (Spleen/Total Flux) * 100% (BALB/c mice; Fluc mRNA-LNP) [%] | Multiple of spleen delivery/total delivery (Spleen/Total Flux) to Compound 118 (BALB/c mice; Fluc mRNA-LNP) | Liver (fluorescence expression intensity) (BALB/c mice; Fluc mRNA-LNP, 75 μL tail vein IV, female BALB/c mice, IVIS 6 hours after injection, liver) |
| --- | --- | --- | --- | --- | --- | --- |
| CCCCCCC(CCCCCC)OC(=O)CCCCCCCCC(CCCCCCCCC(=O)OC(CCCCCC)CCCCCC)N(CCCN(C)C)C(=O)CCCOCCCCC [compound 130] | clear delivery preference to immune cells in various tissues and organs | 5.73E+07 | 1.13E+07 | 19.72 | 17.30 | – |
| CCCCCCOCCCC(=O)N(CCCN(C)C)C(CCCCCCCCC(=O)OC(CCCCCC)CCCCCC)CCCCCCCCC(=O)OC(CCCCCC)CCCCCC [compound 131] | clear delivery preference to immune cells in various tissues and organs | 3.26E+07 | 6.59E+06 | 20.21 | 17.73 | – |
| CCCCCCCCOCCCC(=O)N(CCCN(C)C)C(CCCCCCCCC(=O)OC(CCCCCC)CCCCCC)CCCCCCCCC(=O)OC(CCCCCC)CCCCCC [compound 133] | clear delivery preference to immune cells in various tissues and organs | 3.58E+07 | 1.25E+07 | 34.92 | 30.63 | – |
| CCCCCCOCCCC(=O)N(CCCCN(C)C)C(CCCCCCCCC(=O)OC(CCCCCC)CCCCCC)CCCCCCCCC(=O)OC(CCCCCC)CCCCCC [compound 178] | – | 6.68E+07 | 3.95E+06 | 5.91 | 5.19 | 1.15E+07 |
